# System: HOP-92
# Assay: NCI 60 Cell One-Dose Screen
# Format: cell-based, human
# Conditions: HOP-92, Non-Small Cell Lung Cancer; single dose 10^-5 M
smiles,measurement,value
"NCC(=O)NS(=O)(=O)OC[C@H]1O[C@@H](n2cnc3c(N)ncnc32)[C@H](O)[C@@H]1O [GlySA, glycylsulfamoyladenosine]",Growth inhibition count (%),17.26%

# Source: US20190381086A1, “INHIBITION OF NEDDYLATION USING GLYCYL-tRNA SYNTHETASE INHIBITORS” (The Scripps Research Institute, priority 2015, published 2019)
